In ChEMBL document CHEMBL1201862, “PubChem BioAssay data set” (2004):
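Protocol summary: plate cells (96-well), add compound at 5 concentrations, incubate 48 h, interpolate endpoints linearly. GI50: concentration for 50% inhibition of growth.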 The source made the active and inactive calls. Cut-off read from the data, not from the text of the source: active = GI50 up to about 1.1 µM and inactive = higher.

Assays:
Assay in all cases: DTP human tumour cell line panel, 48 h
OVCAR-3 = system: OVCAR-3
MDA-N = system: MDA-N
BT-549 = system: BT-549
HL-60 = system: HL-60
NCI-H23 = system: NCI-H23
SK-MEL-2 = system: SK-MEL-2
SF-539 = system: SF-539
SR = system: SR
786-0 = system: 786-0
K562 = system: K562
IGROV-1 = system: IGROV-1
MCF7 = system: MCF7
COLO 205 = system: COLO 205
ACHN = system: ACHN
MOLT-4 = system: MOLT-4
A498 = system: A498
TK-10 = system: TK-10
OVCAR-4 = system: OVCAR-4
NCI-H226 = system: NCI-H226

Row | Compound | GI50 (OVCAR-3) | GI50 (MDA-N) | GI50 (BT-549) | GI50 (HL-60) | GI50 (NCI-H23) | GI50 (SK-MEL-2) | GI50 (SF-539) | GI50 (SR) | GI50 (786-0) | GI50 (K562) | GI50 (IGROV-1) | GI50 (MCF7) | GI50 (COLO 205) | GI50 (ACHN) | GI50 (MOLT-4) | GI50 (A498) | GI50 (TK-10) | GI50 (OVCAR-4) | GI50 (NCI-H226)
1 | O=C1CSC(c2cccc(Cl)c2)N1c1ccc(-n2c(-c3ccccc3)nc3ccccc3c2=O)cc1 (configuration not stated) | > 100 µM (inactive) | > 100 µM (inactive) | 9.98 µM (inactive) | > 100 µM (inactive) | > 100 µM (inactive) | > 100 µM (inactive) | 67.1 µM (inactive) | 7.66 µM (inactive) | > 100 µM (inactive) | 51.6 µM (inactive) | 59.2 µM (inactive) | 30.3 µM (inactive) | > 100 µM (inactive) | 79.3 µM (inactive) | 5.47 µM (inactive) | 94.8 µM (inactive) | > 100 µM (inactive) | 18.7 µM (inactive) | –
2 | O=[As](O)(O)c1ccc(NCc2ccccc2)cc1 | > 100 µM (inactive) | > 100 µM (inactive) | > 100 µM (inactive) | – | 92.9 µM (inactive) | > 100 µM (inactive) | – | > 100 µM (inactive) | > 100 µM (inactive) | > 100 µM (inactive) | > 100 µM (inactive) | > 100 µM (inactive) | > 100 µM (inactive) | > 100 µM (inactive) | > 100 µM (inactive) | > 100 µM (inactive) | > 100 µM (inactive) | > 100 µM (inactive) | > 100 µM (inactive)
3 | CN1CCN(C(=S)N(C(=O)c2cccs2)C2CCCCC2)CC1 | > 100 µM (inactive) | > 100 µM (inactive) | > 100 µM (inactive) | 24.8 µM (inactive) | > 100 µM (inactive) | > 100 µM (inactive) | – | > 100 µM (inactive) | > 100 µM (inactive) | > 100 µM (inactive) | > 100 µM (inactive) | > 100 µM (inactive) | > 100 µM (inactive) | > 100 µM (inactive) | > 10 µM (inactive) | – | > 100 µM (inactive) | > 100 µM (inactive) | > 100 µM (inactive)
4 | Cc1nc2ccccc2n1Cc1ccc(NC(=S)NC2CCCCC2)cc1 | 10.8 µM (inactive) | 5.79 µM (inactive) | 15.4 µM (inactive) | 25.6 µM (inactive) | 17.5 µM (inactive) | 15.7 µM (inactive) | > 72.3 µM (inactive) | – | 36.9 µM (inactive) | 14.7 µM (inactive) | 20 µM (inactive) | 4.86 µM (inactive) | 31.1 µM (inactive) | 4.49 µM (inactive) | 5.36 µM (inactive) | 33.6 µM (inactive) | > 100 µM (inactive) | 10.1 µM (inactive) | 24.9 µM (inactive)
5 | CC(NC(=O)C(CC(=O)OCc1ccccc1)NC(=O)OCc1ccccc1)c1ccccc1 (configuration not stated) | > 100 µM (inactive) | > 100 µM (inactive) | > 100 µM (inactive) | – | > 100 µM (inactive) | > 100 µM (inactive) | 64.3 µM (inactive) | > 100 µM (inactive) | 49.2 µM (inactive) | > 100 µM (inactive) | > 100 µM (inactive) | > 100 µM (inactive) | > 100 µM (inactive) | 67.5 µM (inactive) | > 100 µM (inactive) | – | > 100 µM (inactive) | – | 43.5 µM (inactive)
6 | O=C1c2c(O)cccc2Cc2cc(CO)cc(O)c21 | 1.66 µM (inactive) | 2.74 µM (inactive) | 2.01 µM (inactive) | 0.684 µM (active) | 1.85 µM (inactive) | – | – | 2.82 µM (inactive) | 3.21 µM (inactive) | 1.99 µM (inactive) | 4.03 µM (inactive) | 2.58 µM (inactive) | 1.87 µM (inactive) | 2.94 µM (inactive) | 2.96 µM (inactive) | 4.22 µM (inactive) | 4.08 µM (inactive) | 1.07 µM (active) | 5.36 µM (inactive)
7 | Nc1ccn([C@H]2CO[C@@H](CO)O2)c(=O)n1 | > 71.6 µM (inactive) | 17.4 µM (inactive) | 32.7 µM (inactive) | 0.252 µM (active) | 15.1 µM (inactive) | > 100 µM (inactive) | 4.46 µM (inactive) | 1.49 µM (inactive) | 2.87 µM (inactive) | 26.1 µM (inactive) | 74 µM (inactive) | 1.48 µM (inactive) | 83 µM (inactive) | 0.106 µM (active) | 0.28 µM (active) | – | > 100 µM (inactive) | > 100 µM (inactive) | 39.4 µM (inactive)
8 | N#CC(C#N)=C1c2ccccc2C(=NN)c2ccccc21 | > 100 µM (inactive) | > 100 µM (inactive) | > 100 µM (inactive) | – | – | > 100 µM (inactive) | > 56.1 µM (inactive) | > 100 µM (inactive) | > 54.8 µM (inactive) | > 100 µM (inactive) | > 100 µM (inactive) | > 100 µM (inactive) | > 100 µM (inactive) | 12.3 µM (inactive) | > 100 µM (inactive) | > 28.7 µM (inactive) | > 100 µM (inactive) | – | > 100 µM (inactive)
